# Experimental data reported in patent US4115541A (priority 1975, dated 1978).
# Like-named read-outs stand apart in the source and are kept apart here.
# Experiments:
# [1] = Localization in callous of three week-old tibial fractures in rabbits (Example 2); format: in vivo, albino rabbit; details: rabbits i.v.
# Experimental: Adult New Zealand albino rabbits having an average weight of 3.8 kg were utilized. Strontium-85 was employed as a standard for comparison. […] Each dosage is contained in a volume of 1 ml.
# The animals were sacrificed serially from 1 to 24 hours after injection and the activities in major organs were determined by counting multiple samples from each organ in a scintillation well counter (the technetium-99m counts were corrected for the Compton contributions from the strontium-85 activity in the technetium-99m energy window). Multiple samples were counted from the tibia, femur, spine and pelvic bones; the total activity in the skeleton was estimated by assuming the whole skeleton consisted of equal proportions by weight of tibia, spine, femur and pelvis and that the skeletal mass was 10% of the body weight. […] The whole liver and both kidneys were weighed and multiple samples from each were counted to measure the total activity in each organ.
# In another series of experiments carried out as described above, localization of technetium from its tin-phosphonate complex was determined in the callous of three week-old fractures of tibia in albino rabbits, again in comparison with strontium-85. Comparative radioassay of technetium-99m administered as the pertechnetate was measured in the callous of tibial fractures in rabbits at one and four hours after administration.
# [2] = for Blood, % dose/1% body weight / Bone(Avg), % dose/1% body weight / Femur, % dose/1% body weight / Kidneys, % Dose in Whole Organ / Kidneys, % dose/1% body weight / Liver, % Dose in Whole Organ / Liver, % dose/1% body weight / Marrow, % Dose in Whole Organ / Marrow, % dose/1% body weight / Muscle, % dose/1% body weight / One femur, % dose in whole organ / Pelvis, % dose/1% body weight / Spine, % dose/1% body weight / Tibia, % dose/1% body weight / Blood, % Dose in Whole Organ: rabbits i.v., ~1 mg/kg EHDP
# [3] = rabbits, 2 Hrs.
substance,measurement,setting,value
"tin-1-hydroxy-ethane-1,1-diphosphonate [^99m Tc-EHDP]","Callus, % dose/1% body weight",[1]; 1 Hr.,24.7 % dose/1% body weight
same,"Callus, % dose/1% body weight",[1]; 4 Hrs,28.9 % dose/1% body weight
same,skeletal concentrations compared with 85Sr,[2]; at various times,similar
same,soft tissue and blood concentrations compared with 85Sr,[2]; at various times,much lower than those for 85Sr
same,"Blood, % dose/1% body weight",[2]; 1 Hr.,1.23 % dose/1% body weight
same,"Bone(Avg), % dose/1% body weight",[2]; 1 Hr.,4.66 % dose/1% body weight
same,"Femur, % dose/1% body weight",[2]; 1 Hr.,3.85 % dose/1% body weight
same,"Kidneys, % Dose in Whole Organ",[2]; 1 Hr.,2.40 % dose
same,"Kidneys, % dose/1% body weight",[2]; 1 Hr.,3.93 % dose/1% body weight
same,"Liver, % Dose in Whole Organ",[2]; 1 Hr.,0.80 % dose
same,"Liver, % dose/1% body weight",[2]; 1 Hr.,0.30 % dose/1% body weight
same,"Marrow, % Dose in Whole Organ",[2]; 1 Hr.,0.70 % dose
same,"Marrow, % dose/1% body weight",[2]; 1 Hr.,0.36 % dose/1% body weight
same,"Muscle, % dose/1% body weight",[2]; 1 Hr.,0.15 % dose/1% body weight
same,"One femur, % dose in whole organ",[2]; 1 Hr.,0.82 % dose
same,"Pelvis, % dose/1% body weight",[2]; 1 Hr.,7.15 % dose/1% body weight
same,"Spine, % dose/1% body weight",[2]; 1 Hr.,5.87 % dose/1% body weight
same,"Tibia, % dose/1% body weight",[2]; 1 Hr.,2.17 % dose/1% body weight
same,"Blood, % dose/1% body weight",[2]; 2 Hrs,0.37 % dose/1% body weight
same,"Bone(Avg), % dose/1% body weight",[2]; 2 Hrs,4.82 % dose/1% body weight
same,"Femur, % dose/1% body weight",[2]; 2 Hrs,3.94 % dose/1% body weight
same,"Kidneys, % dose/1% body weight",[2]; 2 Hrs,2.72 % dose/1% body weight
same,"Liver, % Dose in Whole Organ",[2]; 2 Hrs,0.42 % dose
same,"Liver, % dose/1% body weight",[2]; 2 Hrs,0.18 % dose/1% body weight
same,"Marrow, % Dose in Whole Organ",[2]; 2 Hrs,0.38 % dose
same,"Marrow, % dose/1% body weight",[2]; 2 Hrs,0.17 % dose/1% body weight
same,"Muscle, % dose/1% body weight",[2]; 2 Hrs,0.04 % dose/1% body weight
same,"One femur, % dose in whole organ",[2]; 2 Hrs,0.84 % dose
same,"Pelvis, % dose/1% body weight",[2]; 2 Hrs,7.40 % dose/1% body weight
same,"Spine, % dose/1% body weight",[2]; 2 Hrs,5.44 % dose/1% body weight
same,"Tibia, % dose/1% body weight",[2]; 2 Hrs,2.49 % dose/1% body weight
same,"Blood, % Dose in Whole Organ",[2]; 4 Hrs,0.89 % dose
same,"Bone(Avg), % dose/1% body weight",[2]; 4 Hrs,4.74 % dose/1% body weight
same,"Femur, % dose/1% body weight",[2]; 4 Hrs,3.86 % dose/1% body weight
same,"Kidneys, % Dose in Whole Organ",[2]; 4 Hrs,0.94 % dose
same,"Kidneys, % dose/1% body weight",[2]; 4 Hrs,1.95 % dose/1% body weight
same,"Liver, % Dose in Whole Organ",[2]; 4 Hrs,0.28 % dose
same,"Marrow, % Dose in Whole Organ",[2]; 4 Hrs,0.83 % dose
same,"Marrow, % dose/1% body weight",[2]; 4 Hrs,0.38 % dose/1% body weight
same,"One femur, % dose in whole organ",[2]; 4 Hrs,0.81 % dose
same,"Pelvis, % dose/1% body weight",[2]; 4 Hrs,7.41 % dose/1% body weight
same,"Spine, % dose/1% body weight",[2]; 4 Hrs,5.52 % dose/1% body weight
same,"Tibia, % dose/1% body weight",[2]; 4 Hrs,2.16 % dose/1% body weight
same,"Blood, % Dose in Whole Organ",[2]; 24 Hrs,0.49 % dose
same,"Blood, % dose/1% body weight",[2]; 24 Hrs,0.07 % dose/1% body weight
same,"Bone(Avg), % dose/1% body weight",[2]; 24 Hrs,4.14 % dose/1% body weight
same,"Femur, % dose/1% body weight",[2]; 24 Hrs,3.42 % dose/1% body weight
same,"Kidneys, % Dose in Whole Organ",[2]; 24 Hrs,0.63 % dose
same,"Kidneys, % dose/1% body weight",[2]; 24 Hrs,1.29 % dose/1% body weight
same,"Liver, % Dose in Whole Organ",[2]; 24 Hrs,0.43 % dose
same,"Liver, % dose/1% body weight",[2]; 24 Hrs,0.28 % dose/1% body weight
same,"Marrow, % Dose in Whole Organ",[2]; 24 Hrs,0.42 % dose
same,"Marrow, % dose/1% body weight",[2]; 24 Hrs,0.19 % dose/1% body weight
same,"One femur, % dose in whole organ",[2]; 24 Hrs,0.76 % dose
same,"Pelvis, % dose/1% body weight",[2]; 24 Hrs,5.70 % dose/1% body weight
same,"Spine, % dose/1% body weight",[2]; 24 Hrs,5.30 % dose/1% body weight
same,"Tibia, % dose/1% body weight",[2]; 24 Hrs,2.10 % dose/1% body weight
same,"Blood, % Dose in Whole Organ",[3]; EHDP 0.01 mg/kg,0.99 % Dose
same,"Blood, % Dose/1%-body weight",[3]; EHDP 0.01 mg/kg,0.142 % Dose/1%-body weight
same,"Femur, % Dose/1%-body weight",[3]; EHDP 0.01 mg/kg,7.49 % Dose/1%-body weight
same,"Kidney, % Dose/1%-body weight",[3]; EHDP 0.01 mg/kg,1.55 % Dose/1%-body weight
same,"Kidneys, % Dose in Whole Organ",[3]; EHDP 0.01 mg/kg,0.81 % Dose
same,"Liver, % Dose in Whole Organ",[3]; EHDP 0.01 mg/kg,0.53 % Dose
same,"Liver, % Dose/1%-body weight",[3]; EHDP 0.01 mg/kg,0.154 % Dose/1%-body weight
same,"Marrow, % Dose in Whole Organ",[3]; EHDP 0.01 mg/kg,0.34 % Dose
same,"Marrow, % Dose/1%-body weight",[3]; EHDP 0.01 mg/kg,0.152 % Dose/1%-body weight
same,"Muscle, % Dose in Whole Organ",[3]; EHDP 0.01 mg/kg,0.78 % Dose
same,"One femur, % dose in whole organ",[3]; EHDP 0.01 mg/kg,2.20 % Dose
same,"Tibia, % Dose/1%-body weight",[3]; EHDP 0.01 mg/kg,8.22 % Dose/1%-body weight
same,"Blood, % Dose/1%-body weight",[3]; EHDP 0.05 mg/kg,0.193 % Dose/1%-body weight
same,"Femur, % Dose/1%-body weight",[3]; EHDP 0.05 mg/kg,8.38 % Dose/1%-body weight
same,"Kidney, % Dose/1%-body weight",[3]; EHDP 0.05 mg/kg,3.83 % Dose/1%-body weight
same,"Kidneys, % Dose in Whole Organ",[3]; EHDP 0.05 mg/kg,2.9 % Dose
same,"Liver, % Dose/1%-body weight",[3]; EHDP 0.05 mg/kg,0.432 % Dose/1%-body weight
same,"Marrow, % Dose in Whole Organ",[3]; EHDP 0.05 mg/kg,0.78 % Dose
same,"Marrow, % Dose/1%-body weight",[3]; EHDP 0.05 mg/kg,0.353 % Dose/1%-body weight
same,"Tibia, % Dose/1%-body weight",[3]; EHDP 0.05 mg/kg,8.68 % Dose/1%-body weight
same,"Blood, % Dose/1%-body weight",[3]; EHDP 0.1 mg/kg,0.146 % Dose/1%-body weight
same,"Femur, % Dose/1%-body weight",[3]; EHDP 0.1 mg/kg,8.97 % Dose/1%-body weight
same,"Kidney, % Dose/1%-body weight",[3]; EHDP 0.1 mg/kg,1.09 % Dose/1%-body weight
same,"Kidneys, % Dose in Whole Organ",[3]; EHDP 0.1 mg/kg,0.63 % Dose
same,"Liver, % Dose in Whole Organ",[3]; EHDP 0.1 mg/kg,0.19 % Dose
same,"Liver, % Dose/1%-body weight",[3]; EHDP 0.1 mg/kg,0.068 % Dose/1%-body weight
same,"Marrow, % Dose in Whole Organ",[3]; EHDP 0.1 mg/kg,0.20 % Dose
same,"Marrow, % Dose/1%-body weight",[3]; EHDP 0.1 mg/kg,0.093 % Dose/1%-body weight
same,"Muscle, % Dose in Whole Organ",[3]; EHDP 0.1 mg/kg,0.98 % Dose
same,"Tibia, % Dose/1%-body weight",[3]; EHDP 0.1 mg/kg,9.63 % Dose/1%-body weight
same,"Blood, % Dose/1%-body weight",[3]; EHDP 0.5 mg/kg,0.215 % Dose/1%-body weight
same,"Kidney, % Dose/1%-body weight",[3]; EHDP 0.5 mg/kg,2.23 % Dose/1%-body weight
same,"Kidneys, % Dose in Whole Organ",[3]; EHDP 0.5 mg/kg,1.10 % Dose
same,"Liver, % Dose in Whole Organ",[3]; EHDP 0.5 mg/kg,0.260 % Dose
same,"Liver, % Dose/1%-body weight",[3]; EHDP 0.5 mg/kg,0.086 % Dose/1%-body weight
same,"Marrow, % Dose in Whole Organ",[3]; EHDP 0.5 mg/kg,0.19 % Dose
same,"Marrow, % Dose/1%-body weight",[3]; EHDP 0.5 mg/kg,0.088 % Dose/1%-body weight
